Type in all cases: in vivo
For one test, the system named is Liriomyza sp. The test can be described thus: Example 18: beans against Liriomyza sp. The method, then: Plots approx. 10 m^2 in size which are planted with beans cv. “Lago Azul” are treated, in three replications, against Liriomyza sp. Here, the active substance Example (I-4) (150 OD) and the commercial standards Cyromazine (WP 75) and Abamectin (EC 018) are applied at the specified application rates, using a knapsack sprayer which is operated with pressurized gas. The water application rate is 400 and 500 l/ha., respectively. Three applications are carried out at intervals of in each case 7 days.
The destruction rate in percent is determined on in each case 10 leaves. 2, 7, 12, 18, 20 and 25 days after the first treatment, the following results are obtained: […]

Another test has as its system Dasineura mali. The test can be described thus: Example 19 a): apple trees against Dasineura mali. The conditions noted are these: 59 d after treatment; larvae, apple twigs; Pirimicarb (50 WG) 125, (I-4) (100 OD) 72 g a.s./ha/m crown level. As for the experimental part:
Apple trees cv. “Elan” which are approximately 16 years old are treated, in 3 replications, against the Dasineura mali. Here, the active substance Example (I-4) (100 OD) is tested at the specified application rate against the commercial standard and Pirimicarb (50 WG) at the specified application rate. The application is carried out with a spray diffuser. Here, the treatment is effected with a water application rate of 1000 l/ha/m crown level.
The test is evaluated 59 days after the treatment by scoring the destruction of the larvae on the basis of the adults present on the twigs with the aid of the Abbott method.

In test [1] the test system is Anthonomus pomorum, the apple blossom weevil. The test can be described thus: Example 26B: apple trees against apple blossom weevil. Particulars: 22 d after treatment, larvae on inflorescences, Thiacloprid (SC 480) 48 + Deltamethrin 3.75 tank mix, (I-4) (150 OD) 48 g a.s./ha/m crown level. As for the experimental part: Apple trees cv. “Holsteiner Cox” in plots approx. 20 m^2 in size are treated, in 4 replications, against Anthonomus pomorum, the apple blossom weevil. Here, the active substance Example (I-4) (150 OD) at the specified application rate is tested against a tank mix of the commercial standards Thiacloprid (SC 480) and Deltamethrin-liquid in the specified application rates. The application is carried out with a knapsack sprayer. Here, the treatment is effected with a water application rate of 500 l/ha/m crown level.
The test is evaluated 22 days after the treatment by scoring the destruction of the larvae on the inflorescences with the aid of the Abbott method.

The subject of test [2] is oriental fruit moth (Laspeyresia molesta). Briefly: Example 28: peach trees against oriental fruit moth. The conditions noted are these: 41 d after treatment, Pyrifroxyfen (35 WP) 123, Acetamiprid (30 SG) 168, (I-4) (150 OD) 153 g a.s./ha. The method, then: Approx. 10-year-old peach trees are treated, in four replications, against the oriental fruit moth (Laspeyresia molesta). The application is carried out with a knapsack sprayer which is operated with pressurized air. Here, the active substance (I-4) (150 OD) is tested against the commercial standards Pyriproxyfen (35 WP) and Acetamiprid (30 SG) at the specified application rates. The water application rate is 935 l/ha.
The test is evaluated 41 days after the treatment by scoring the destruction rate of the animals on the trees.

The text below walks through data of US20090298903A1, “USE OF TETRAMIC ACID DERIVATIVES FOR INSECT CONTROL” (priority 2006, published 2009).

With `CCOC(=O)OC1=C(c2cc(C)ccc2C)C(=O)N[C@]12CC[C@@H](OC)CC2` [Example (I-4)], in the test on Liriomyza sp. (2 d after first treatment, 10 leaves, Cyromazine (WP 75) 130, (I-4) (150 OD) 100, Abamectin (EC 018) 14.4 g a.s./ha, three applications, 7-day intervals), the “Efficacy (% Abbott) 2 d” value turned out to be 40 % Abbott. In addition, the “Efficacy (% Abbott) 7 d” value in the test on Liriomyza sp. (7 d after first treatment, Cyromazine 130, (I-4) 100, Abamectin 14.4 g a.s./ha) is recorded as 69 % Abbott. For the same compound, the “Efficacy (% Abbott) 12 d” value in the test with Liriomyza sp. (12 d after first treatment, Cyromazine 130, (I-4) 100, Abamectin 14.4 g a.s./ha) turned out to be 30 % Abbott. For the same compound, in the test on Liriomyza sp. (18 d after first treatment, Cyromazine 130, (I-4) 100, Abamectin 14.4 g a.s./ha), the “Efficacy (% Abbott) 18 d” value is on record as 43 % Abbott. Further, in the test with Liriomyza sp. (20 d after first treatment, Cyromazine 130, (I-4) 100, Abamectin 14.4 g a.s./ha), the “Efficacy (% Abbott) 20 d” value is on record as 57 % Abbott. The “Efficacy (% Abbott) 25 d” value with Liriomyza sp. (25 d after first treatment, Cyromazine 130, (I-4) 100, Abamectin 14.4 g a.s./ha) was 46 % Abbott. In addition, the “Efficacy (%) Abbott 59 d” value in the test on Dasineura mali was determined as 95.1%. Moreover, the “Efficacy (%) Abbott 22 d” value in test [1] was found to be 88%. Besides, in test [2], the “Efficacy (% Abbott) 41 d” value stood at 48.1 % Abbott.
